Measurements taken from patent publication US20250319145A1, “EXTRACT WITH ANTI-INFLAMMATORY EFFECT” (Medizinische Universitat Innsbruck, priority 2021, published 2025).

How the values were obtained:
[1] = biological target: T1, IKKβ Kinase (Homo sapiens, UniProt O14920); assay: In vitro immunoprecipitation IKKβ kinase assay with IκBα as substrate (autoradiography); type: biochemical; settings: 1.6, 2.8 and 6% vs DMSO control; FIG. 9
T1 construct: made in house; host or cells: HEK 293T cells (transient transfection, anti-HA immunoprecipitation)
T1 sequence (O14920 1-756): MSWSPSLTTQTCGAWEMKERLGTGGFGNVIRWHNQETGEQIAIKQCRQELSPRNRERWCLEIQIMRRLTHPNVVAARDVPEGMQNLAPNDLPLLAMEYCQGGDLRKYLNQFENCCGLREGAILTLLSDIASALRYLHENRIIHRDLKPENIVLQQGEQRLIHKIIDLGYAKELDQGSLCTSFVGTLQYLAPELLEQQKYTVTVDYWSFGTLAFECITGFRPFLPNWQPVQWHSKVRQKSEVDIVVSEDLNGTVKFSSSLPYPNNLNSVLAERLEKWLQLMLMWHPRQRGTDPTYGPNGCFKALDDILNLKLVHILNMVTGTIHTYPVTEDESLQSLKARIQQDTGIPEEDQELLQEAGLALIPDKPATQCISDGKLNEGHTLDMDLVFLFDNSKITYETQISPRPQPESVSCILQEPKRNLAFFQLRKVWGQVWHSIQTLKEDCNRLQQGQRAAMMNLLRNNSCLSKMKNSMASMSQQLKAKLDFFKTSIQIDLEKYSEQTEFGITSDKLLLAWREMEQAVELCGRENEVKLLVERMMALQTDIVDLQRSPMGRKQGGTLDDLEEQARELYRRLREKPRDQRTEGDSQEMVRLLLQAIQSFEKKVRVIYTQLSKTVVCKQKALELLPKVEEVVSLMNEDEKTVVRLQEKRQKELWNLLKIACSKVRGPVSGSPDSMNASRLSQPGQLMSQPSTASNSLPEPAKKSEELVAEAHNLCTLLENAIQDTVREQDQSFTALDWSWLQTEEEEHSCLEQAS
Protocol: The IKK complex subunit IKKβ is responsible for the phosphorylation of IκBα and it's targeting for degradation upon TNFα induction. Therefore, it has been investigated whether the extracts inhibit IKKβ. […] The kinase assay was based on quantifying the activity of the kinase IKKβ via autoradiography.
Specifically, HEK 293T cells were transfected with the HA-IKKβ construct. Cells were washed with ice-cold phosphate-buffered saline (PBS) and extracted with lysis buffer containing 50 mM HEPES (pH 7.5), 150 mM NaCl, 1% (vol/vol) Nonidet P-40, 2 mM EDTA, 50 mM sodium fluoride, 10 mM sodium pyrophosphate, 1 mM sodium orthovanadate, 50 μg of leupeptin (Boehringer Mannheim)/ml, 0.5% aprotinin (Sigma), 1 mM phenylmethylsulphonyl fluoride (Sigma), and 3 mM benzamidine (Sigma). 300 ng of total protein were immunoprecipitated with 2 μg of anti-HA antibodies and immune complexes were collected using protein A-Sepharose beads (Amersham Pharmacia Biotech). Immune complexes were washed three times with lysis buffer followed by a single wash with high salt buffer (500 mM NaCl) and kinase assay buffer (50 mM HEPES [pH 7.5], 10 mM MgCl2, 1 mM dithiothreitol, 10 mM β-glycerophosphate). […] Samples were subjected to 10% SDS-PAGE, and the amount of ^32P incorporated into the IKKβ and IκBα proteins was assessed by autoradiography (FIG. 4). […]

[2] = tested on: reconstructed human epidermis (RHE)-models; assay: Cytokine release in reconstituted human epidermis model after TNFα; type: cell-based; settings: 0.75 ng/ml TNFα, extract 10 μg/ml in medium, 24 h and 48 h
Protocol: The bioactivity of the extract of Chromochloris zofingiensis (2022C) was tested in human epidermis equivalents by measuring cytokine secretion in response to TNFα treatment.
The extract was tested in a physiological relevant set-up represented by reconstructed human epidermis (RHE)-models (FIG. 2), (W. Pixelproduction, epiCS—CellSystems GmbH. [Online]. Available: https://cellsystems.de/cells-and-media/c/epics (accessed: Oct. 2 2020)), purchased from Cell Systems. epiCS RHE models are validated for the classification of compounds according to the OECD test guideline 431. […]
The secretion of relevant pro-inflammatory cytokines of RHE-models (from Cell Systems Biotechnology), were quantified after induction with 0.75 ng/ml TNFα and treatment with DMSO, WFA or the extract of Chromochloris zofingiensis in a concentration of 10 μg/ml in DMSO.
After culturing the keratinocyte cell layer in cell culture inserts (0.6 cm^2) under submerged conditions, the tissues were lifted to the air-liquid interphase to induce differentiation, epithelial stratification and cornification. […] The cytokine release was evaluated 24 h and 48 h after the TNFα treatment. The secretion of the cytokines IL-1ra, RANTES, IL-1α, GM-CSF, TSLP, IP-10, IL-18, IL-6, IL-8, IL-10, MCP-1, IL-1β, TNFα and INF-β was measured. […]

diacylglyceryl-N,N,N-trimethylhomoserine [DGTS]
direct inhibition of the IKKβ kinase [1]: no inhibition

CC1=C(CO)C(=O)O[C@@H]([C@@H](C)[C@H]2CC[C@H]3[C@@H]4C[C@H]5O[C@]56[C@@H](O)C=CC(=O)[C@]6(C)[C@H]4CC[C@]23C)C1 [WFA, Withaferin A]
release of IL-10, MCP-1, IP-10 and RANTES [2]: substantial decrease
